Assay results published in patent publication US20170190671A1, “BIS(ARYL)CATECHOL DERIVATIVES AS HERBICIDES” (E I DU PONT DE NEMOURS AND COMPANY, priority 2014, published 2017).

Key:
Type in all cases: in vivo
[1] = test system: blackgrass (Alopecurus myosuroides); assay: Test C postemergence; conditions: Alopecurus myosuroides, post-emergence, 336 h, Postemergence, scale 0 to 100, read-out: Plant response rating, Blackgrass
Method in brief: (§1)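 Seeds sown in a loam soil and sand blend were treated preemergence; plants in peat-moss/vermiculite medium were sprayed at the 1- to 4-leaf stage (2-18 cm). Chemicals were in a non-phytotoxic surfactant-containing solvent. After 13 to 15 days in a greenhouse, injury was visually rated against controls on a 0-100 scale.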

[2] = test system: lambsquarters (Chenopodium album); assay: Test C postemergence; conditions: Chenopodium album, post-emergence, 336 h, Postemergence, scale 0 to 100, read-out: Plant response rating, Lambsquarters
Method in brief: as §1

[3] = test system: velvetleaf (Abutilon theophrasti); assay: Test C postemergence; conditions: Abutilon theophrasti, post-emergence, Postemergence, scale 0 to 100, read-out: Plant response rating, Velvetleaf
Method in brief: as §1

[4] = test system: chickweed (common chickweed, Stellaria media); assay: Test C postemergence; conditions: Stellaria media, post-emergence, Postemergence, scale 0 to 100, read-out: Plant response rating, Chickweed
Method in brief: as §1

[5] = test system: giant foxtail (Setaria faberii); assay: Test C postemergence; conditions: Setaria faberi, post-emergence, 336 h, Postemergence, scale 0 to 100, read-out: Plant response rating, Foxtail, Giant
Method in brief: as §1

[6] = test system: yellow nutsedge (Cyperus esculentus); assay: Test C postemergence; conditions: Cyperus, post-emergence, 336 h, Postemergence, scale 0 to 100, read-out: Plant response rating, Nutsedge, Yellow
Method in brief: as §1

[7] = test system: winter wheat (Triticum aestivum); assay: Test C preemergence; conditions: Triticum aestivum, pre-emergence, 336 h, scale 0 to 100, read-out: Plant response rating, Wheat
Method in brief: as §1

[8] = test system: blackgrass (Alopecurus myosuroides); assay: Test C preemergence; conditions: Alopecurus myosuroides, pre-emergence, 336 h, scale 0 to 100, read-out: Plant response rating, Blackgrass
Method in brief: as §1

[9] = test system: velvetleaf (Abutilon theophrasti); assay: Test C preemergence; conditions: Abutilon theophrasti, pre-emergence, scale 0 to 100, read-out: Plant response rating, Velvetleaf
Method in brief: as §1

[10] = test system: Italian ryegrass (Lolium multiflorum); assay: Test C preemergence; conditions: Lolium multiflorum, pre-emergence, 336 h, scale 0 to 100, read-out: Plant response rating, Ryegrass, Italian
Method in brief: as §1

[11] = test system: johnsongrass (Sorghum halepense); assay: Test C preemergence; conditions: Sorghum halepense, pre-emergence, 336 h, scale 0 to 100, read-out: Plant response rating, Johnsongrass
Method in brief: as §1

[12] = test system: waterhemp (common waterhemp, Amaranthus rudis); assay: Test C preemergence; conditions: Amaranthus tuberculatus, pre-emergence, scale 0 to 100, read-out: Plant response rating, Waterhemp
Method in brief: as §1

[13] = test system: oilseed rape (Brassica napus); assay: Test C preemergence; conditions: Brassica napus, pre-emergence, scale 0 to 100, read-out: Plant response rating, Oilseed Rape
Method in brief: as §1

[14] = test system: giant foxtail (Setaria faberii); assay: Test C preemergence; conditions: Setaria faberi, pre-emergence, 336 h, scale 0 to 100, read-out: Plant response rating, Foxtail, Giant
Method in brief: as §1

[15] = test system: soybean (Glycine max); assay: Test C preemergence; conditions: Glycine max, pre-emergence, scale 0 to 100, read-out: Plant response rating, Soybean
Method in brief: as §1

[16] = test system: yellow nutsedge (Cyperus esculentus); assay: Test C preemergence; conditions: Cyperus, pre-emergence, 336 h, scale 0 to 100, read-out: Plant response rating, Nutsedge, Yellow
Method in brief: as §1

[17] = test system: ragweed (common ragweed, Ambrosia elatior); assay: Test C preemergence; conditions: Ambrosia artemisiifolia, pre-emergence, 336 h, scale 0 to 100, read-out: Plant response rating, Ragweed
Method in brief: as §1

[18] = test system: corn (Zea mays); assay: Test C preemergence; conditions: Zea mays, pre-emergence, 336 h, scale 0 to 100
Method in brief: as §1

[19] = test system: large (Lg) crabgrass (Digitaria sanguinalis); assay: Test C preemergence; conditions: Digitaria sanguinalis, pre-emergence, 336 h, scale 0 to 100, read-out: Plant response rating, Crabgrass, Large
Method in brief: as §1

[20] = test system: morningglory (Ipomoea coccinea); assay: Test C preemergence; conditions: Ipomoea, pre-emergence, 336 h, scale 0 to 100, read-out: Plant response rating, Morningglory
Method in brief: as §1

[21] = test system: galium (catchweed bedstraw, Galium aparine); assay: Test C preemergence; conditions: Galium, pre-emergence, 336 h, scale 0 to 100, read-out: Plant response rating, Galium
Method in brief: as §1

[22] = test system: pigweed (Amaranthus retroflexus); assay: Test C preemergence; conditions: Amaranthus retroflexus, pre-emergence, 336 h, scale 0 to 100, read-out: Plant response rating, Pigweed
Method in brief: as §1

FC(F)c1cccc(Oc2ncc(Cl)cn2)c1Oc1ncc(Cl)cn1 [Compound 46, 2,2′-[[3-(difluoromethyl)-1,2-phenylene]bis(oxy)]bis[5-chloropyrimidine]]
60%: pest or weed control at 62 g/ha ([4]; 62 g ai/ha)
95%: pest or weed control at 62 g/ha ([8]; 62 g ai/ha, preemergence) | pest or weed control at 125 g/ha ([8]; 125 g ai/ha, preemergence) | pest or weed control at 62 g/ha ([9]; 62 g ai/ha, preemergence) | pest or weed control at 62 g/ha ([10]; 62 g ai/ha, preemergence) | plant injury at 125 g/ha ([15]; 125 g ai/ha, preemergence) | pest or weed control at 62 g/ha ([21]; 62 g ai/ha, preemergence)
80%: pest or weed control at 125 g/ha ([16]; 125 g ai/ha, preemergence) | pest or weed control at 62 g/ha ([20]; 62 g ai/ha, preemergence)
40%: pest or weed control at 31 g/ha ([4]; 31 g ai/ha) | pest or weed control at 31 g/ha ([11]; 31 g ai/ha, preemergence) | plant injury at 31 g/ha ([15]; 31 g ai/ha, preemergence)
55%: pest or weed control at 16 g/ha ([2]; 16 g ai/ha) | pest or weed control at 62 g/ha ([3]; 62 g ai/ha) | pest or weed control at 62 g/ha ([16]; 62 g ai/ha, preemergence)
75%: pest or weed control at 125 g/ha ([4]; 125 g ai/ha) | pest or weed control at 62 g/ha ([11]; 62 g ai/ha, preemergence) | pest or weed control at 16 g/ha ([12]; Preemergence, 16 g ai/ha) | pest or weed control at 16 g/ha ([14]; Preemergence, 16 g ai/ha)
25%: pest or weed control at 31 g/ha ([3]; 31 g ai/ha) | pest or weed control at 125 g/ha ([5]; 125 g ai/ha) | pest or weed control at 16 g/ha ([9]; Preemergence, 16 g ai/ha) | pest or weed control at 31 g/ha ([10]; 31 g ai/ha, preemergence) | pest or weed control at 31 g/ha ([17]; 31 g ai/ha, preemergence) | Corn plant response rating (crop injury, 0 = no effect, 100 = complete kill) at 31 g/ha ([18]; 31 g ai/ha, preemergence) | Corn plant response rating (crop injury, 0 = no effect, 100 = complete kill) at 62 g/ha ([18]; 62 g ai/ha, preemergence)
85%: pest or weed control at 62 g/ha ([2]; 62 g ai/ha) | pest or weed control at 31 g/ha ([21]; 31 g ai/ha, preemergence)
65%: pest or weed control at 125 g/ha ([3]; 125 g ai/ha) | plant injury at 16 g/ha ([13]; Preemergence, 16 g ai/ha) | plant injury at 62 g/ha ([15]; 62 g ai/ha, preemergence)
70%: pest or weed control at 31 g/ha ([2]; 31 g ai/ha) | pest or weed control at 31 g/ha ([8]; 31 g ai/ha, preemergence)
10%: plant injury at 16 g/ha ([15]; Preemergence, 16 g ai/ha) | Corn plant response rating (crop injury, 0 = no effect, 100 = complete kill) at 16 g/ha ([18]; Preemergence, 16 g ai/ha)
20%: pest or weed control at 31 g/ha ([5]; 31 g ai/ha) | pest or weed control at 16 g/ha ([20]; Preemergence, 16 g ai/ha) | pest or weed control at 16 g/ha ([22]; Preemergence, 16 g ai/ha)
90%: plant injury at 31 g/ha ([13]; 31 g ai/ha, preemergence) | Corn plant response rating (crop injury, 0 = no effect, 100 = complete kill) at 125 g/ha ([18]; 125 g ai/ha, preemergence) | pest or weed control at 31 g/ha ([20]; 31 g ai/ha, preemergence)
0%: pest or weed control at 16 g/ha ([1]; 16 g ai/ha) | pest or weed control at 31 g/ha ([1]; 31 g ai/ha) | pest or weed control at 62 g/ha ([1]; 62 g ai/ha) | pest or weed control at 31 g/ha ([6]; 31 g ai/ha) | plant injury at 16 g/ha ([7]; Preemergence, 16 g ai/ha) | pest or weed control at 16 g/ha ([8]; Preemergence, 16 g ai/ha) | pest or weed control at 16 g/ha ([10]; Preemergence, 16 g ai/ha) | pest or weed control at 16 g/ha ([16]; Preemergence, 16 g ai/ha) | pest or weed control at 16 g/ha ([17]; Preemergence, 16 g ai/ha)
98%: pest or weed control at 125 g/ha ([2]; 125 g ai/ha) | plant injury at 62 g/ha ([13]; 62 g ai/ha, preemergence)
50%: pest or weed control at 62 g/ha ([5]; 62 g ai/ha) | plant injury at 125 g/ha ([7]; 125 g ai/ha, preemergence)
100%: pest or weed control at 31 g/ha ([9]; 31 g ai/ha, preemergence) | pest or weed control at 125 g/ha ([9]; 125 g ai/ha, preemergence) | pest or weed control at 125 g/ha ([10]; 125 g ai/ha, preemergence) | pest or weed control at 125 g/ha ([11]; 125 g ai/ha, preemergence) | pest or weed control at 31 g/ha ([12]; 31 g ai/ha, preemergence) | pest or weed control at 62 g/ha ([12]; 62 g ai/ha, preemergence) | pest or weed control at 125 g/ha ([12]; 125 g ai/ha, preemergence) | plant injury at 125 g/ha ([13]; 125 g ai/ha, preemergence) | pest or weed control at 31 g/ha ([14]; 31 g ai/ha, preemergence) | pest or weed control at 62 g/ha ([14]; 62 g ai/ha, preemergence) | pest or weed control at 125 g/ha ([14]; 125 g ai/ha, preemergence) | pest or weed control at 125 g/ha ([17]; 125 g ai/ha, preemergence) | pest or weed control at 31 g/ha ([19]; 31 g ai/ha, preemergence) | pest or weed control at 62 g/ha ([19]; 62 g ai/ha, preemergence) | pest or weed control at 125 g/ha ([19]; 125 g ai/ha, preemergence) | pest or weed control at 16 g/ha ([19]; Preemergence, 16 g ai/ha) | pest or weed control at 125 g/ha ([20]; 125 g ai/ha, preemergence) | pest or weed control at 125 g/ha ([21]; 125 g ai/ha, preemergence) | pest or weed control at 31 g/ha ([22]; 31 g ai/ha, preemergence) | pest or weed control at 62 g/ha ([22]; 62 g ai/ha, preemergence) | pest or weed control at 125 g/ha ([22]; 125 g ai/ha, preemergence)
35%: pest or weed control at 16 g/ha ([4]; 16 g ai/ha) | pest or weed control at 16 g/ha ([5]; 16 g ai/ha) | pest or weed control at 31 g/ha ([16]; 31 g ai/ha, preemergence) | pest or weed control at 62 g/ha ([17]; 62 g ai/ha, preemergence)
5%: pest or weed control at 125 g/ha ([1]; 125 g ai/ha) | pest or weed control at 62 g/ha ([6]; 62 g ai/ha) | pest or weed control at 125 g/ha ([6]; 125 g ai/ha) | plant injury at 31 g/ha ([7]; 31 g ai/ha, preemergence) | plant injury at 62 g/ha ([7]; 62 g ai/ha, preemergence) | pest or weed control at 16 g/ha ([11]; Preemergence, 16 g ai/ha) | pest or weed control at 16 g/ha ([21]; Preemergence, 16 g ai/ha)
